8 compounds from PubChem BioAssay (NCI) can be followed below.

Test systems include ACHN renal; HOP-92 NSCLC; LOX IMVI melanoma; M14 melanoma; MOLT-4 leukemia; NCI-H460 lung; SF-539 CNS; SNB-19 CNS; T-47D breast; UACC-62 melanoma.
What all share (assay): growth of human tumour cells (NCI), 48 h

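Cultured in 96-well plates, cells were exposed to test compound for 48 hours across five concentrations. GI50: concentration for 50% inhibition of growth. Definition used: TGI = concentration required for complete inhibition of growth.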 Where only a bound is given, the exact number is not on record here.

Regarding `CC1=NN(c2nc(N)nc(/C=C\c3ccc([N+](=O)[O-])s3)n2)C(C)(C)C1`, the GI50 in the assay on ACHN renal, with HOP-92 NSCLC, in the assay with LOX IMVI melanoma, in the assay with M14 melanoma, in the assay on MOLT-4 leukemia and with NCI-H460 lung was over 100 µM each time. The GI50 in the assay on SF-539 CNS, in the assay on SNB-19 CNS, with T-47D breast and with UACC-62 melanoma was over 100 µM in each case. The TGI with ACHN renal, in the assay with HOP-92 NSCLC, in the assay on LOX IMVI melanoma, with M14 melanoma, with MOLT-4 leukemia and with NCI-H460 lung was over 100 µM in each case. The TGI in the assay on SF-539 CNS, in the assay on SNB-19 CNS, with T-47D breast and with UACC-62 melanoma was over 100 µM in each case.
As for `CC#Cc1nc(Nc2cc(C)[nH]n2)c2ccccc2n1`, the GI50 is 2.74 µM with ACHN renal; 3.55 µM with HOP-92 NSCLC; 2.07 µM in the assay on LOX IMVI melanoma; 4.34 µM in the assay on M14 melanoma; 5.33 µM with MOLT-4 leukemia; 4.53 µM in the assay with NCI-H460 lung. Besides, the GI50 in the assay on SF-539 CNS was 3.81 µM; with SNB-19 CNS it was 19.8 µM; in the assay on T-47D breast it was 10.8 µM; with UACC-62 melanoma, 2.67 µM. Further, the TGI with ACHN renal is 14.1 µM; in the assay with HOP-92 NSCLC it was 21.1 µM; in the assay with LOX IMVI melanoma, 4.4 µM; with M14 melanoma, 23.8 µM; in the assay with MOLT-4 leukemia, over 100 µM; in the assay on NCI-H460 lung, 20.3 µM. The TGI in the assay on SF-539 CNS came out at 17.6 µM; in the assay with SNB-19 CNS, 50.7 µM; in the assay on T-47D breast, 56.5 µM; in the assay with UACC-62 melanoma it was 11.8 µM.
In the case of `Oc1ccc(Cc2cc(Cl)cc(Cl)c2O)cc1Cl`, the TGI was determined as 31.2 µM in the assay with ACHN renal; 33.9 µM in the assay with HOP-92 NSCLC; 31.4 µM in the assay with LOX IMVI melanoma; 34 µM in the assay with M14 melanoma; 55.6 µM in the assay with MOLT-4 leukemia; 32.4 µM in the assay on NCI-H460 lung. The TGI in the assay with SF-539 CNS was 34.3 µM; in the assay on SNB-19 CNS, 33.7 µM; in the assay with T-47D breast, 44.5 µM; in the assay with UACC-62 melanoma, 27.9 µM.
Take `CC1(C)C(=O)/C(=C\c2cccnc2)C[C@]2(C)[C@H]3CC[C@@H]4[C@@H](C(=O)/C=C/c5ccncc5)CC[C@@]4(C)[C@]3(C)CC[C@@H]12`: the GI50 is 1.75 µM in the assay on ACHN renal; 1.48 µM with HOP-92 NSCLC; 1.38 µM with LOX IMVI melanoma; 1.89 µM in the assay on M14 melanoma; 2.78 µM with MOLT-4 leukemia; 1.9 µM in the assay on NCI-H460 lung. Moreover, the GI50 in the assay with SF-539 CNS is 1.76 µM; in the assay with SNB-19 CNS it was 1.66 µM; with T-47D breast, 1.6 µM; in the assay on UACC-62 melanoma it was 1.61 µM. Moreover, the TGI in the assay on ACHN renal was 3.36 µM; with HOP-92 NSCLC it was 3.39 µM; with LOX IMVI melanoma it was 2.95 µM; in the assay with M14 melanoma it was 4.93 µM; with MOLT-4 leukemia, 10.4 µM; in the assay on NCI-H460 lung, 4 µM. The TGI with SF-539 CNS came out at 3.25 µM; in the assay on SNB-19 CNS it was 3.22 µM; in the assay with T-47D breast, 9.54 µM; in the assay on UACC-62 melanoma it was 3.46 µM.
Turning to `O=C(O)c1cc2ccccc2c2c1C(=O)c1ccccc1-2`, the TGI with ACHN renal, in the assay on HOP-92 NSCLC, in the assay on LOX IMVI melanoma, in the assay with M14 melanoma, in the assay with MOLT-4 leukemia and in the assay on NCI-H460 lung was over 100 µM in each case. The TGI with SF-539 CNS, with SNB-19 CNS, with T-47D breast and in the assay on UACC-62 melanoma was over 100 µM each time.
`CCCCCCCCCCCCCCCCCC(=O)Nc1ccn(C2OC(CO)C(O)C2O)c(=O)n1` (stereo not given): the TGI is over 100 µM in the assay with ACHN renal; over 100 µM in the assay on HOP-92 NSCLC; 39.4 µM in the assay with LOX IMVI melanoma; over 77.3 µM in the assay on M14 melanoma; 23.1 µM with MOLT-4 leukemia; over 100 µM in the assay on NCI-H460 lung. Moreover, the TGI in the assay with SF-539 CNS was over 100 µM; in the assay with SNB-19 CNS it was 69.7 µM; in the assay on T-47D breast, over 100 µM; in the assay with UACC-62 melanoma, over 100 µM.
On to `Nc1ncc(-c2cccc(S(N)(=O)=O)c2)c2scc(-c3ccc(F)c(Cl)c3)c12`, for which the GI50 in the assay with ACHN renal is 6.36 µM; in the assay on HOP-92 NSCLC, 5.14 µM; in the assay on LOX IMVI melanoma, 4.84 µM; in the assay on M14 melanoma, 7.54 µM; in the assay on MOLT-4 leukemia, 5.35 µM; with NCI-H460 lung it was 3.8 µM. The GI50 was 5.27 µM in the assay with SF-539 CNS, 10.6 µM with SNB-19 CNS, 3.59 µM in the assay on T-47D breast and 5.17 µM in the assay with UACC-62 melanoma. Besides, the TGI in the assay on ACHN renal was over 25 µM; in the assay on HOP-92 NSCLC, 18.4 µM; with LOX IMVI melanoma, 9.67 µM; in the assay on M14 melanoma, 16.8 µM; in the assay on MOLT-4 leukemia, over 19.2 µM; with NCI-H460 lung it was 8.08 µM. The TGI is 13.2 µM in the assay with SF-539 CNS, over 25 µM with SNB-19 CNS, 11 µM with T-47D breast and 11.7 µM in the assay on UACC-62 melanoma.
Take `COc1c(B(O)O)cc(F)cc1-c1nc2ccc3[nH]ncc3c2c2c1CCCC2`: the GI50 with ACHN renal was 1.12 µM; in the assay with HOP-92 NSCLC it was under 0.01 µM; in the assay with LOX IMVI melanoma, 0.727 µM; with M14 melanoma, 2.64 µM; in the assay on MOLT-4 leukemia, 1.18 µM; with NCI-H460 lung, 0.822 µM. Besides, the GI50 with SF-539 CNS is 0.0686 µM; in the assay on SNB-19 CNS, 1.73 µM; in the assay on T-47D breast, 2.62 µM; with UACC-62 melanoma it was 1.55 µM. Besides, the TGI in the assay on ACHN renal was 16.3 µM; in the assay with HOP-92 NSCLC, 14.4 µM; in the assay on LOX IMVI melanoma, 3.43 µM; in the assay on M14 melanoma, 5.44 µM; in the assay on MOLT-4 leukemia it was over 100 µM; in the assay with NCI-H460 lung, 10.5 µM. Moreover, the TGI with SF-539 CNS was found to be 2.24 µM; in the assay with SNB-19 CNS, 13 µM; with T-47D breast, 8.99 µM; with UACC-62 melanoma, 5.85 µM.
